# Test results: US11390629B2, “1,5-disubstituted 1,2,3-triazoles are inhibitors of Rac/Cdc42 GTPases” (UNIVERSITY OF PUERTO RICO, priority 2016, dated 2022)
# Columns and labels:
# [1] = system: GFP-HER2-BM, MDA-MB-468, Hs578t, Mia-PaCa-2, SKOV3, AGS, NCI-N87, SH-SY5Y cells; experiment: Bright field cell phenotype, other mesenchymal cancer cell lines; type: cell-based, human; conditions: 250 or 500 nM, 24 h
# Protocol: FIG. 9. Human cancer cell phenotype following MBQ-167 treatment. Triple negative breast cancer (MDA-MB-468), aggressive pancreatic (Mia PaCa-2), ovarian (SKVO3), gastric carcinoma (AGS and NCI-N87) cell lines and a neuroblastoma (SH-SY5Y) cell line were treated with 0, 250 or 500 nM MBQ-167 for 24 h; Representative bright field images are shown for each cell line.
# Human breast cancer cells were visualized by bright field microscopy following MBQ-167 treatment. At ≥100 nM, starting at six hours, MBQ-167 induced a loss of polarity in metastatic breast cancer cells. […] On the other hand, non-cancer mammary epithelial MCF10A and epithelial breast cancer MCF-7 cells were resistant to MBQ-167 and remained polarized and attached to each other and the substratum (FIG. 2A).
# GFP-HER2-BM cells = experiment: Cell viability assay (CellTiter 96 / MTT), GFP-HER2-BM; type: cell-based; conditions: Homo sapiens, 120 h
# Source text: Effect of MBQ-167 on cell survival.
# Rac = Rac activation pulldown (p21-binding domain of PAK) and western blot, MDA-MB-231 cells; type: cell-based, human; conditions: for decrease in Rac activation: 250 nM, 24 h; for inhibition in Rac activity: 250 or 500 nM, 6 h
# Cdc42 = Cdc42 (Homo sapiens, UniProt P60953); experiment: Cdc42 activation pulldown (p21-binding domain of PAK) and western blot, MDA-MB-231 cells; type: cell-based; set-up: endogenous in cells; host or cells: MDA-MB-231; conditions: 24 h, detached cells
# [2] = system: GFP-HER2-BM mammary fat pad tumors; experiment: Mammary fat pad tumor growth, GFP-HER2-BM cells in nude mice; type: in vivo; conditions: for reduction in tumor growth: 65 days; for Optimal % Change in Tumor Size (% T/C): day 65, control = 100; for Time in Days for Doubling of Tumor size, 2^1: control 8; for Time in Days for Doubling of Tumor size, 2^2: control 14.5; for Time in Days for Doubling of Tumor size, 2^3: control 27.7; for Time in Days for Doubling of Tumor size, 2^4: control 33.3
# Protocol: FIGS. 6A-1, 6A-2, 6B, 6C, 6D, 6E. In-vivo efficacy of MBQ-167 in HER2-type breast cancer.
# To test the effect of MBQ-167 on mammary tumor progression, nude mice were used to establish mammary fatpad tumors from GFP-HER2-BM cells. One week following mammary tumor establishment, the mice were treated 3× a week with 0, 1, or 10 mg/kg BW MBQ-167 by i.p. for 65 days.
# Mice were treated with vehicle (12.5% ethanol, 12.5% Cremophor (Sigma-Aldrich, St. Louis, Mo.), and 75% 1×PBS pH 7.4), or 1 or 10 mg/kg BW MBQ-167 by i.p. injection in a 100 μL volume 3× a wk. Treatments continued until sacrifice at day 65.
# Sequence of Cdc42 (P60953 whole entry, the tested form may be a part): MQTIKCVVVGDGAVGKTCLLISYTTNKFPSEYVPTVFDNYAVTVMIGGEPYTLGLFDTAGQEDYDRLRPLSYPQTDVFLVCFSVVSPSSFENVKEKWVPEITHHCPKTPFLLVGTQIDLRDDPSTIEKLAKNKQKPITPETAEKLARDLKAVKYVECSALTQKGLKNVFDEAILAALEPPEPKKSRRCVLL
structure (smiles),measurement,setting,value
"CCn1c2ccccc2c2cc(-n3nncc3-c3ccccc3)ccc21 [I-1, 9-ethyl-3-(5-phenyl-1H-1,2,3-triazol-1-yl)-9H-carbazole]",cell rounding and detachment phenotype,[1],induced this phenotype
same,GI50,GFP-HER2-BM cells,150 nM
same,decrease in Rac activation,Rac; attached cells,~25%
same,decrease in Rac activation,Rac; detached cells,~75%
same,inhibition in Rac activity,Rac; attached cell population,10-20%
same,inhibition in Rac activity,Rac; detached population,40-50%
same,inhibition of Cdc42 activity,"Cdc42; 250 nM, listed as MBQ-167, […]",85%
same,inhibition at […],"Cdc42; MDA-MB-231, 250 nM",78%
same,reduction in tumor growth,[2]; 1.0 mg/kg BW i.p. 3x a week,~80%
same,Optimal % Change in Tumor Size (% T/C),[2]; 1 mg/kg BW i.p. 3x a week,58%
same,"Time in Days for Doubling of Tumor size, 2^1",[2]; 1 mg/kg BW,10 days
same,"Time in Days for Doubling of Tumor size, 2^2",[2]; 1 mg/kg BW,30 days
same,"Time in Days for Doubling of Tumor size, 2^3",[2]; 1 mg/kg BW,57 days
same,"Time in Days for Doubling of Tumor size, 2^4",[2]; 1 mg/kg BW,never reached
same,reduction in tumor growth,[2]; 10 mg/kg BW i.p. 3x a week,~95%
same,Optimal % Change in Tumor Size (% T/C),[2]; 10 mg/kg BW i.p. 3x a week,9%
same,reduction of mammary fat pad tumor size,"[2]; 10 mg/kg BW, by 2 months",91%
same,"Time in Days for Doubling of Tumor size, 2^1",[2]; 10 mg/kg BW,11 days
same,"Time in Days for Doubling of Tumor size, 2^2",[2]; 10 mg/kg BW,30 days
same,"Time in Days for Doubling of Tumor size, 2^3",[2]; 10 mg/kg BW,never reached
same,"Time in Days for Doubling of Tumor size, 2^4",[2]; 10 mg/kg BW,never reached
same,inhibition of mammary tumor growth and metastasis,[2]; immunocompromised mice,~90%
